According to patent publication US4428938A, “Peptides affecting the immune regulation and a process for their preparation” (Richter Gedeon Vegyeszeti Gyar Rt., priority 1981, dated 1984):
Non-standard residues stand in square brackets, D forms with d. Residues, ends and D or L forms follow the SMILES beside them. pGlu = O=C1CC[C@@H](C(=O)O)N1

Key:
[1] = test system: lymphocytes of patients suffering from rheumatoid arthritis; assay: Active E-rosette test, lymphocytes of rheumatoid arthritis patients; assay type: cell-based, human; conditions: for E-rosette forming activity, percentage amount of active lymphocytes: n = 4
Description: (§1) The active E-rosette test was carried out according to a modified method of Wybran et al [Wybran et al: New Engl. J. Med. 292, 475 (1975)] by the lymphocites of healthy and autoimmune patients (rheumatoid arthritis and systemic lupus erythematosus). To 50 μl of a lymphocyte cell suspension 10^-3 -10^-11 moles/lit. solutions of the test material were added and the mixture was incubated in an atmosphere containing 5.0% of carbon dioxide, at 37° C. for 60 minutes. Thereafter 50 μlit. of a 1% sheep erythrocite suspension were added and the mixture was centrifuged at 1000 r.p.m. for 10 minutes followed by shaking with a modified Gallenkampf-shaker (shaking time: 30 sec, stroke: 8 cm, shaking frequency: 65/min.). The rosettes were fixed with a 0.1% glutaric aldehyde (50 μlit. for each tube, 3 min.). Lymphocytes bonding more than three sheep erythrocite were counted under a microscope and 4×100 cells were evaluated. The separated lymphocytes contain macrophages and polymorphonuclear cells (up to 10%) as an impurity. The number of the cells forming the rosettes was corrected by this value each case.

[2] = test system: antibody production against sheep erythrocyte; assay: Effect on antibody production (Ceglowski's method), agglutination titer; assay type: in vivo, H. Wistar rats
Description: (1) The effect on antibody production was tested according to Ceglowski's method [Ceglowski: Ann. N.Y. Acad. Sci. 249, 343 (1975)]. New-born H. Wistar rats were treated with single 25 μlit. doses of 4×10^-3 -4×10^-7 moles/lit. of the test material (9 animals for each dose) at the latest at the 12th hour after birth. The 14-day animals were then immunized with a sheep erythrocyte suspension administering 0.5 ml. of a 5% sheep erythrocyte suspension each animal intraperitoneally. On the 7th day after immunization the animals were decapitated. The blood of three animals was mixed and from the serum obtained (after centrifuging at 3000 r.p.m. for 10 minutes) the titers for antibodies were determined by the method of Takatsy [Takatsy: Acta Microbiol. Acad. Sci. Hung. 3, 191 (1955)]. The results are expressed in agglutination titers. The titer corresponds to the […] dilution of the serum in which agglutination can be observed.

[3] = test system: lymphocytes of healthy persons; assay: Active E-rosette test, lymphocytes of healthy persons; assay type: cell-based, human; conditions: for E-rosette forming activity, percentage amount of active lymphocytes: n = 4
Description: as §1

[4] = single 25 μlit. dose of 4·10^-3 moles/liter to new-born rats
[5] = single 25 μlit. dose of 4·10^-5 moles/liter to new-born rats
[6] = single 25 μlit. dose of 4·10^-7 moles/liter to new-born rats

SMILES | E-rosette forming activity, percentage amount of active lymphocytes ([1]; 10^-3 moles/liter) [%] | E-rosette forming activity, percentage amount of active lymphocytes ([1]; 10^-5 moles/liter) [%] | E-rosette forming activity, percentage amount of active lymphocytes ([1]; 10^-7 moles/liter) [%] | E-rosette forming activity, percentage amount of active lymphocytes ([1]; 10^-9 moles/liter) [%] | E-rosette forming activity, percentage amount of active lymphocytes ([1]; 10^-11 moles/liter) [%] | In vivo effect on the antibody production (in words) ([2]; 4.10^-7 moles/lit.) | Antibody production, agglutination titer (X ± S.D.) [2, 4] | Antibody production, agglutination titer (X ± S.D.) [2, 5] | Antibody production, agglutination titer (X ± S.D.) [2, 6] | Effect on E-rosette forming activity (in words) ([1]; 10^-5 moles/lit.) | E-rosette forming activity, percentage amount of active lymphocytes ([3]; 10^-3 moles/liter) [%] | E-rosette forming activity, percentage amount of active lymphocytes ([3]; 10^-5 moles/liter) [%] | E-rosette forming activity, percentage amount of active lymphocytes ([3]; 10^-9 moles/liter) [%] | E-rosette forming activity, percentage amount of active lymphocytes ([3]; 10^-11 moles/liter) [%] | E-rosette forming activity, percentage amount of active lymphocytes ([3]; 10^-7 moles/liter) [%] | Effect on E-rosette forming activity (in words) ([1]; 10^-7 moles/lit.) | Effect on E-rosette forming activity (in words) ([3]; 10^-9 moles/lit.) | Effect on E-rosette forming activity (in words) ([3]; 10^-11 moles/lit.) | Effect on E-rosette forming activity (in words) ([1]; 10^-9 moles/lit.) | Effect on E-rosette forming activity (in words) ([1]; 10^-11 moles/lit.)
CC(C)[C@H](NC(=O)[C@H](CC(=O)O)NC(=O)[C@H](CCCCN)NC(=O)[C@H](CCCNC(=N)N)NC(=O)[C@@H]1CCC(=O)N1)C(=O)O [Glp--Arg--Lys--Asp--Val, Glp-Arg-Lys-Asp-Val] ([pGlu]RKDV-OH) | 22.8 | 23.2 | 21.4 | 19.4 | 20.4 | inhibiting activity | 9.0 ± 2.6 | 8.3 ± 0.6 | 7.2 ± 1.3 |  |  |  |  |  |  |  |  |  |  | 
CC(C)[C@H](NC(=O)[C@H](CC(N)=O)NC(=O)[C@H](CCCCN)NC(=O)[C@@H](N)CCCNC(=N)N)C(=O)O [compound No. 9] (H-RKNV-OH) |  |  |  |  |  |  |  |  |  | significant inhibiting activity |  |  |  |  |  |  |  |  |  | 
CC(C)[C@H](NC(=O)[C@H](CC(N)=O)NC(=O)[C@H](CCCCN)NC(=O)[C@@H](N)CCCNC(=N)N)C(=O)O [Arg--Lys--Asn--Val, Arg-Lys-Asn-Val] (H-RKNV-OH) | 22.3 | 21.9 | 24.6 | 23.7 | 24.3 |  |  |  |  |  | 35.5 | 39.1 | 35.4 | 36.7 |  |  |  |  |  | 
COC(=O)[C@@H](NC(=O)[C@H](CC(=O)O)NC(=O)[C@H](CCCCN)NC(=O)[C@@H](N)CCCNC(=N)N)C(C)C [Arg--Lys--Asp--Val--OMe, Arg-Lys-Asp-Val-OMe] (H-RKDV-OMe) | 31.2 | 30.8 | 32.4 | 27.9 | 26.5 |  | 6.0 ± 1.7 | 4.5 ± 0.5 | 5.5 ± 2.6 |  | 26.8 | 27.2 | 24.8 | 23.8 | 29.4 | stimulating effect |  |  |  | 
CC(C)[C@H](NC(=O)[C@H](CCCCN)NC(=O)[C@H](CC(=O)O)NC(=O)[C@@H](N)CCCNC(=N)N)C(=O)O [Arg--Asp--Lys--Val, Arg-Asp-Lys-Val] (H-RDKV-OH) | 25.4 | 26.2 | 26.4 | 27.3 | 27.5 |  |  |  |  |  | 34.2 | 37.5 | 40.4 | 36.4 | 37.7 |  | significant stimulating effect |  |  | 
CC(C)[C@H](NC(=O)[C@H](C)NC(=O)[C@H](CCCCN)NC(=O)[C@@H](N)CCCNC(=N)N)C(=O)O [Arg--Lys--Ala--Val, Arg-Lys-Ala-Val] (H-RKAV-OH) | 20.3 | 23.4 | 21.7 | 25.5 | 23.1 |  |  |  |  |  | 33.3 | 30.5 | 34.5 | 30.9 | 35.8 |  |  |  |  | 
N=C(N)NCCC[C@H](NC(=O)[C@@H]1CCC(=O)N1)C(=O)N[C@@H](CCCCN)C(=O)N[C@@H](CC(=O)O)C(=O)O [Glp--Arg--Lys--Asp, Glp-Arg-Lys-Asp] ([pGlu]RKD-OH) | 20.6 | 18.7 | 19.5 | 19.7 | 18.4 |  |  |  |  |  | 29.1 | 33.8 | 26.6 | 38.1 | 35.1 |  |  | stimulating effect |  | 
N=C(N)NCCC[C@H](NC(=O)[C@@H]1CCC(=O)N1)C(=O)N[C@@H](CCCCN)C(=O)N[C@@H](CC(=O)O)C(=O)O [compound No. 8] ([pGlu]RKD-OH) |  |  |  |  |  |  |  |  |  | significant inhibiting activity |  |  |  |  |  |  |  |  |  | 
CC(C)[C@H](NC(=O)[C@H](CCC(=O)O)NC(=O)[C@H](CCCCN)NC(=O)[C@@H](N)CCCNC(=N)N)C(=O)O [Arg--Lys--Glu--Val, Arg-Lys-Glu-Val] (H-RKEV-OH) |  |  |  |  |  |  |  |  |  |  | 33.2 | 32.9 | 35.4 | 33.0 | 36.2 |  |  |  |  | 
CC(C)[C@H](NC(=O)[C@H](CC(=O)O)NC(=O)[C@H](CCCNC(=N)N)NC(=O)[C@@H](N)CCCCN)C(=O)O [Lys--Arg--Asp--Val, Lys-Arg-Asp-Val] (H-KRDV-OH) | 23.6 | 25.8 | 21.2 | 25.7 | 26.6 |  |  |  |  |  | 31.5 | 25.6 | 29.1 | 32.9 | 30.0 |  |  |  | significantly stimulated | stimulating effect
CC(C)[C@H](NC(=O)[C@H](CC(=O)O)NC(=O)[C@H](C)NC(=O)[C@@H](N)CCCNC(=N)N)C(=O)O [Arg--Ala--Asp--Val, Arg-Ala-Asp-Val] (H-RADV-OH) | 21.8 | 20.2 | 19.8 | 20.7 | 22.5 |  |  |  |  |  | 32.5 | 33.4 | 38.2 | 36.0 | 32.4 |  |  |  |  | 
CC[C@H](C)[C@H](NC(=O)[C@H](CC(=O)O)NC(=O)[C@H](CCCCN)NC(=O)[C@@H](N)CCCNC(=N)N)C(=O)O [Arg--Lys--Asp--Ile, Arg-Lys-Asp-Ile] (H-RKDI-OH) | 25.5 | 25.4 | 23.2 | 28.7 | 24.5 |  |  |  |  |  | 35.5 | 32.0 | 35.0 | 30.7 | 34.9 |  |  |  |  | 
